Experimental data as given in patent publication US9618501B2, “Three-dimensional fibrous scaffolds for cell culture” (University of South Florida, priority 2012, dated 2017).
Where two headings read alike, the source gives them in different places.

Tests used:
Assay type in all cases: cell-based
MCF-7 cells [1] = experiment: Dose dependent cytotoxic response of MCF-7 cells, monolayer vs 3P scaffold (calcein AM/ethidium live cell count); conditions: for IC50: Homo sapiens, MCF7, 48 h, 48 hours of drug; for IC50 for 3P cultures relative to monolayer cultures: MCF7 cells, 3P scaffold vs monolayer
Procedure: MCF cells (7×10^3) were cultured on monolayer and 3P scaffold for 7 days then treated with different concentration of LY294002 and U0126 for 48 hours. Cells were stained with calcein/am and ethydium bromide then counted. Mean percentage of live cells (+/−SEM) were plotted as a function of drug concentration on and represents 4 replicates in 3 separate experiments. Box data points indicate monolayer and diamond data points indicate 3P scaffold.
To further explore the utility of the 3P scaffold as a tool to monitor chemotherapeutic prevention of EMT, MCF-7 breast cancer cells were treated with Doxorubicin and Ly294002 and U0126 inhibitors to prevent spheroid formation and examined for a differential dose-dependent response which was compared with response in monolayer 2D culture. […] The IC-50 of a drug is defined as the […] of a drug to inhibit biological or biochemical function.

tumor cells = experiment: Doxorubicin sensitivity of tumor cells grown on 3PC scaffolds vs monolayer
Procedure: It was also determined that PLGA naked scaffolds are biocompatible and show increased tumorigenesis potential. From these observations, one can conclude that these 3D matrices can be used as a model to study cancer.

LLC spheroids [2] = experiment: Drug efficacy on LLC spheroids grown on 3P scaffold (spheroid size and number)
Procedure: Drug efficacy analysis using 3P scaffold: To assess the ability of the 3P scaffold to monitor therapeutic efficacy to treat tumors, LLC spheroids were treated with different concentrations of the PI3K pathway inhibitor Ly294002 (1.0 μM, 0.1 μM, and 0.01 μM) and spheroid viability was assessed over a time period of 24 hours to 96 hours.

[3] = tested on: biopsy induced tumoroids (BITs); experiment: Chemosensitivity of biopsy induced tumoroids (BITs) from FNAs of implanted LLC1 mouse tumors on 3P scaffolds; conditions: for IC50: Mus musculus, LLC1
Procedure: FIG. 17 illustrates biopsy tumoroids (day 2) treated with 1 μM each of LY294002 or U0126 for 3 days. The average size of biopsy tumoroids on 3P scaffolds (n=10 controls, 55 LY294002 and 50 U0126) is shown.
Culturing fine needle aspirates (FNAs) of implanted mouse tumors: LLC1 cells (5×10^5) were subcutaneously injected into the flanks of wild type C57BL/6 mice (National Cancer Institute). Tumor formation was monitored for 2 weeks after which tumor biopsies were collected by fine needle aspiration. Briefly, a 23-gauge needle was inserted into the tumor using a rotating motion and the tissue samples were flushed from the needle by attaching a syringe filled with tissue culture medium and expelling the contents into a sterile tube. This process was repeated twice. The three collected tumor samples were pooled and single cell suspensions were cultured on the scaffold.
Chemosensitivity of tumor biopsies grown on 3P scaffolds: To determine if the 3P scaffold can be utilized to culture tumor biopsies, single-cell suspensions of FNAs of implanted mouse tumors were cultured on 3P scaffolds. […] In addition to tumor cells, BITs were examined for the presence of stromal cells that are typical of in vivo tumor microenvironment (TME) (Mallela et al., (2013) Stem Cells 31: 1321-1329) by immunostaining with antibodies to respective cell surface markers.
To determine if the biopsy tumoroids cultured on 3P scaffolds can be utilized to assess drug sensitivity, FNA tumoroids were cultured in the presence or absence of the inhibitors, LY294002 and U0126.

LLC spheroids [4] = experiment: EMT marker expression in fully formed LLC spheroids treated at day 4
Procedure: (§1) To determine if treatment by these agents would deregulate EMT in fully formed spheroids, the same concentration of drugs were administered to LLC spheroids cultured at day 4.

MCF-7 cells [5] = experiment: Inhibition of spheroid formation and EMT markers in MCF-7 cells on 3P scaffold
Procedure: as §1

[6] = MCF-7 on 3P scaffold, read-out: IC-50
[7] = MCF-7 on monolayer, read-out: IC-50
[8] = 0.01 μM, 24 hours post treatment
[9] = 0.01 μM, 96 hours post treatment
[10] = 0.1 μM, 24 hours post treatment
[11] = 1.0 μM, 24 hours post treatment

Structure (SMILES): COc1cccc2c1C(=O)c1c(O)c3c(c(O)c1C2=O)C[C@@](O)(C(=O)CO)C[C@@H]3O[C@H]1C[C@H](N)[C@H](O)[C@H](C)O1 [doxorubicin]
- IC50 (MCF-7 cells [1]; [6]): 12000 nM
- IC50 (MCF-7 cells [1]; [7]): 600 nM
- sensitivity of tumor cells compared to cells grown on monolayer (tumor cells): less sensitive

Structure (SMILES): O=c1cc(N2CCOCC2)oc2c(-c3ccccc3)cccc12 [LY294002]
- IC50 (MCF-7 cells [1]; [6]): 1150 nM
- IC50 (MCF-7 cells [1]; [7]): 130 nM
- IC50 for 3P cultures relative to monolayer cultures (MCF-7 cells [1]): 10 fold
- average decrease in spheroid size compared to untreated spheroids (LLC spheroids [2]; [8]): 17+/−12.5%
- decrease in spheroid numbers (LLC spheroids [2]; [8]): 14.5+/−8.52%
- decrease in spheroid numbers (LLC spheroids [2]; 0.01 μM, 48 hours): 40.3+/−2.44%
- average decrease in spheroid size (LLC spheroids [2]; 0.01 μM, 48 hours post treatment): 28.9+/−9.3%
- average decrease in spheroid size (LLC spheroids [2]; [9]): 63+/−5.9%
- decrease in spheroid numbers (LLC spheroids [2]; [9]): 93.3+/−0.48%
- average decrease in spheroid size compared to untreated spheroids (LLC spheroids [2]; [10]): 22.0+/−10.9%
- decrease in spheroid numbers (LLC spheroids [2]; [10]): 26.8+/−4.38%
- decrease in spheroid numbers (LLC spheroids [2]; 0.1 μM, 48 hours): 52.6+/−2.93%
- average decrease in spheroid size (LLC spheroids [2]; 0.1 μM, 48 hours post treatment): 32.6+/−5.97%
- average decrease in spheroid size compared to untreated spheroids (LLC spheroids [2]; [11]): 37.3+/−8.4%
- decrease in spheroid numbers (LLC spheroids [2]; [11]): 37.4+/−3.8%
- decrease in spheroid numbers (LLC spheroids [2]; 1.0 μM, 48 hours): 61.7+/−2.92%
- average decrease in spheroid size (LLC spheroids [2]; 1.0 μM, 48 hours post treatment): 51.2+/−6.73%
- IC50 ([3]; biopsy tumoroids (BITs) on 3P scaffold, read-out: IC50): > 1000 nM

Structure (SMILES): N#CC(=C(/N)Sc1ccccc1N)/C(C#N)=C(\N)Sc1ccccc1N [U0126]
- IC50 (MCF-7 cells [1]; MCF-7 on 3P scaffold): 106 nM
- IC50 (MCF-7 cells [1]; MCF-7 on monolayer): 10.6 nM
- IC50 for 3P cultures relative to monolayer cultures (MCF-7 cells [1]): 100 fold
- vimentin and E-cadherin expression (EMT inhibition) (LLC spheroids [4]): lack of vimentin expression and a concomitant expression of E-cadherin
- spheroid formation and proliferation on 3P scaffolds (MCF-7 cells [5]; MCF-7 treated after 24 hours of culture, observed on day 4): prevented spheroid formation and proliferation
- vimentin and E-cadherin expression (MCF-7 cells [5]; cells on 3P scaffold treated after 24 hours of culture): down regulating vimentin while maintaining E-cadherin expression
- growth of BITs ([3]; FNA tumoroids on 3P scaffold cultured with inhibitor): decreases in tumoroid size
- IC50 [3]: > 1000 nM
